Paper PMC8000724, “Trans-Epithelial Transport, Metabolism, and Biological Activity Assessment of the Multi-Target Lupin Peptide [sequence] (P5) and Its Metabolite [sequence] (P5-Met)” (Nutrients, 2021)

Tests used:
[1] = test system: differentiated Caco-2 cells (AP membrane peptidases); assay: Metabolites of P5 produced by Caco-2 cell peptidases, MS analysis of AP solutions; type: in vitro ADME, human; design: key to Metabolite of P5 identified in the AP compartment: Mixture / Metabolite of P5 identified in the AP compartment: Alone: x, detected; n.d., not detected
Procedure: Prior to experiments, the cell monolayer integrity and differentiation were checked by TEER measurement as described in detail above. Peptide trans-epithelial passage was assayed in differentiated Caco-2 cells in transport buffer solution (137 mM NaCl, 5.36 mM KCl, 1.26 mM CaCl2, and 1.1 mM MgCl2, 5.5 mM glucose) according to previously described conditions. In order to reproduce the pH conditions existing in vivo in the small intestinal mucosa, the apical (AP) solutions were maintained at pH 6.0 (buffered with 10 mM morpholinoethane sulfonic acid), and the basolateral (BL)solutions were maintained at pH 7.4 (buffered with 10 mM […]). Prior to transport experiments, cells were washed twice with 500 µL PBS containing Ca^++ and Mg^++. Peptide transportation by mature Caco-2 cells was assayed by loading the AP compartment with P5 alone, in mixture with […] (P3) and […] (P7), and/or P5-met (500 μM) in the AP transport solution (500 µL) and the BL compartment with the BL transport solution (700 µL). The plates were incubated at 37 °C and the BL solutions were collected at different time points (i.e., 15, 30, 60, 90, and 120 min) and replaced with fresh solutions pre-warmed at 37 °C. All BL and AP solutions collected at the end of the transport experiment were stored at −80 °C prior to analysis. Three independent transport experiments were performed, each in duplicate. In order to assess the involvement of transcytotic process in peptides passage, parallel transport experiments were performed in the presence of 500 nM wortmannin in both the AP and BL compartment, over 60 min incubation time.
The medium collected at the end of transport experiments from AP and BL chambers (500 µL and 700 µL, respectively) were freeze-dried and residues were solubilized in HPLC water (100 µL). Samples were desalted with C18 resin ZipTip by using 80% ACN, 0.1% FA as eluent (Millipore Corporation, Bedford, MA, USA). Each sample was lyophilized under speed-vacuum for 5 h at 30°C and re-dissolved in 50 μL (0.1% formic acid), before MS analysis. Purified BL samples were analyzed on a SL IT mass spectrometer interfaced with a HPLC- Chip Cube source (Agilent Technologies, Palo Alto, CA, USA). Data were processed with MSD Trap control 4.2, and Data analysis 4.2 version (Agilent Technologies, Palo Alto, CA, USA). The chromatographic separation was performed using a 1200 HPLC system equipped with a binary pump. […] Specifically, The monitored MRM transitions of P5-met were from the mono-charged precursor ion [M^+H]^+ (m/z 882.43) to product-ions m/z 678.3 and 407.1, respectively. […]

[2] = test system: HepG2 cells; assay: Fluorescent LDL uptake by HepG2 cells; type: cell-based, human; conditions: mean ± SD
Procedure: HepG2 cells (3 × 10^4/well) were seeded in 96-well plates and kept in complete growth medium for 2 days before treatment. The third day, cells were washed with PBS and then starved overnight (O/N) in DMEM without FBS and antibiotics. After starvation, they were treated with 4.0 μg/mL PCSK9 and 4.0 μg/mL PCSK9 + P5 and P5-met peptides (50.0 µM), and vehicle (H2O) for 2 h with at 37 °C under 5% CO2 atmosphere. At the end of the treatment, the culture medium was replaced with 50 μL/well LDL-DyLight™ 550 working solution (Cayman Chemical Company, Ann Arbor, MI, USA) prepared in DMEM without FBS and antibiotics. The cells were additionally incubated for 2 h at 37 °C and then the culture medium was aspirated and replaced with PBS (100 μL/well). The degree of LDL uptake was measured using the Synergy H1 fluorescent plate reader (Winooski, VT, USA) (excitation and emission wavelengths 540 and 570 nm, respectively). Fluorescent LDL-uptake was finally assessed following optimized protocol.

In the case of H-LPKHSDAD-OH [Peptide P5-met], the “Spectral Intensity of the metabolite in the AP compartment” value ([1]; Caco-2, AP compartment, end of incubation 120 min, used as measure of metabolite abundance) is reported as 1.21 × 10^7, the “Metabolite of P5 identified in the AP compartment: Alone” value ([1]; P5 incubated alone (500 μM), Caco-2, end of incubation 120 min) is reported as “x” and the “Metabolite of P5 identified in the AP compartment: Mixture” value ([1]; P5 incubated in mixture with P3 and P7 (500 μM each), Caco-2, end of incubation 120 min) is reported as “x”. For the same substance, the “Ability of HepG2 cells to absorb extracellular LDL versus the control” value ([2]; HepG2, 50 µM, fluorescent LDL-DyLight 550, without added PCSK9) was 181.2 ± 40.1% and the “LDL uptake by HepG2 cells restored, co-incubation with PCSK9” value ([2]; peptide 50 µM + PCSK9 4 µg/mL, 2 h, % of untreated cells) was 104.1 ± 8.5%.
